Results taken from PubChem BioAssay AID248 (DTP/NCI, 2004).
Values joined by “and” are separate entries in the source; they are usually repeats but may differ in a detail not shown here. Equal entries are not always repeated. Toxic doses and inconclusive results are not listed.

Tested on: L1210 leukemia ip in BDF1 mice, survival T/C
Experiment: NCI In Vivo Anticancer Drug Screen. Data for tumor model L1210 Leukemia (intraperitoneal) in B6D2F1 (BDF1) mice
Details: endpoint: mean survival time, higher = longer survival
How it was run: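 Antitumor effect is assessed in tumor-bearing animals. Survival in the compound arm is compared with a vehicle-dosed control arm and expressed as their quotient.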

[1] = dose: 100.0 mg/kg/injection, schedule: Q01DX001 (ip), vehicle: saline
[2] = dose: 200.0 mg/kg/injection, schedule: Q01DX001 (ip), vehicle: saline
[3] = dose: 400.0 mg/kg/injection, schedule: Q01DX001 (ip), vehicle: saline
[4] = dose: 100.0 mg/kg/injection, schedule: Q04DX002 (ip), vehicle: Klucel (hydroxypropylcellulose) (HPC)
[5] = dose: 200.0 mg/kg/injection, schedule: Q04DX002 (ip), vehicle: Klucel (hydroxypropylcellulose) (HPC)
[6] = dose: 400.0 mg/kg/injection, schedule: Q04DX002 (ip), vehicle: Klucel (hydroxypropylcellulose) (HPC)
[7] = dose: 25.0 mg/kg/injection, schedule: Q04DX003 (ip), vehicle: saline with Tween-80
[8] = dose: 25.0 mg/kg/injection, schedule: Q04DX002 (ip), vehicle: Klucel (hydroxypropylcellulose) (HPC)
[9] = dose: 50.0 mg/kg/injection, schedule: Q04DX002 (ip), vehicle: Klucel (hydroxypropylcellulose) (HPC)
[10] = dose: 100.0 mg/kg/injection, schedule: Q01DX009 (ip), vehicle: Klucel (hydroxypropylcellulose) (HPC)
[11] = dose: 100.0 mg/kg/injection, schedule: Q04DX003 (ip), vehicle: saline with Tween-80
[12] = dose: 100.0 mg/kg/injection, schedule: Q04DX003 (ip), vehicle: saline
[13] = dose: 200.0 mg/kg/injection, schedule: Q04DX003 (ip), vehicle: saline
[14] = dose: 400.0 mg/kg/injection, schedule: Q04DX003 (ip), vehicle: saline
[15] = dose: 100.0 mg/kg/injection, schedule: Q01DX001 (ip), vehicle: saline with Tween-80
[16] = dose: 200.0 mg/kg/injection, schedule: Q01DX001 (ip), vehicle: saline with Tween-80
[17] = dose: 12.5 mg/kg/injection, schedule: Q04DX002 (ip), vehicle: Klucel (hydroxypropylcellulose) (HPC)
[18] = dose: 200.0 mg/kg/injection, schedule: Q01DX009 (ip), vehicle: Klucel (hydroxypropylcellulose) (HPC)
[19] = dose: 400.0 mg/kg/injection, schedule: Q01DX009 (ip), vehicle: Klucel (hydroxypropylcellulose) (HPC)

In the case of O=C(O)CC1(C(=O)O)CC2CCC1C2 (centres undefined), the T/C (dose: 100.0 mg/kg/injection, schedule: Q01DX009 (ip), vehicle: carboxymethylcellulose (CMC)) is reported as 91 % of control, the T/C (dose: 100.0 mg/kg/injection, schedule: Q04DX003 (ip), vehicle: carboxymethylcellulose (CMC)) is reported as 103 % of control and the T/C (dose: 200.0 mg/kg/injection, schedule: Q01DX009 (ip), vehicle: carboxymethylcellulose (CMC)) is reported as 94 % of control. The T/C (dose: 200.0 mg/kg/injection, schedule: Q04DX003 (ip), vehicle: carboxymethylcellulose (CMC)) was 103 % of control, the T/C (dose: 400.0 mg/kg/injection, schedule: Q01DX009 (ip), vehicle: carboxymethylcellulose (CMC)) was 92 % of control and the T/C (dose: 400.0 mg/kg/injection, schedule: Q04DX003 (ip), vehicle: carboxymethylcellulose (CMC)) was 100 % of control.

For CCC1NC(C(=O)O)CS1 (centres undefined), the T/C [1] was 96 % of control, the T/C [2] was 100 % of control and the T/C [3] was 89 % of control.

In the case of O=C(O)C(=O)Nc1ncccc1C(=O)O, the T/C [4] is reported as 114 % of control, the T/C [5] is reported as 100 % of control and the T/C [6] is reported as 103 % of control.

In the case of C/C(CCCCl)=N/NC(N)=S, the T/C (dose: 6.25 mg/kg/injection, schedule: Q01DX009 (ip), vehicle: saline) is reported as 98 % of control, the T/C (dose: 6.25 mg/kg/injection, schedule: Q04DX003 (ip), vehicle: saline with Tween-80) is reported as 98 % of control and the T/C (dose: 12.5 mg/kg/injection, schedule: Q01DX009 (ip), vehicle: saline) is reported as 107 % of control. The T/C (dose: 12.5 mg/kg/injection, schedule: Q04DX003 (ip), vehicle: saline with Tween-80) was 92 % of control, the T/C [7] was 90 % of control and the T/C (dose: 100.0 mg/kg/injection, schedule: Q01DX001 (ip), vehicle: acetone) was 100 % of control. The T/C (dose: 200.0 mg/kg/injection, schedule: Q01DX001 (ip), vehicle: acetone) was 90 % of control.

In the case of Cc1c[n+](CC(=O)c2ccccc2)cn1CC(=O)c1ccccc1, the T/C (dose: 25.0 mg/kg/injection, schedule: Q01DX009 (ip), vehicle: Klucel (hydroxypropylcellulose) (HPC)) is reported as 102 % of control and 105 % of control, the T/C [8] is reported as 95 % of control and 102 % of control and the T/C (dose: 50.0 mg/kg/injection, schedule: Q01DX009 (ip), vehicle: Klucel (hydroxypropylcellulose) (HPC)) is reported as 100 % of control and 116 % of control. The T/C [9] was 95 % of control and 100 % of control and the T/C [10] was 102 % of control and 108 % of control.

For CC1=CC=CC(=O)C1(C)C(Cl)Cl (centres undefined), the T/C (dose: 100.0 mg/kg/injection, schedule: Q01DX009 (ip), vehicle: saline with Tween-80) was 91 % of control, the T/C [11] was 97 % of control and the T/C (dose: 200.0 mg/kg/injection, schedule: Q01DX009 (ip), vehicle: saline with Tween-80) was 104 % of control. For the same compound, the T/C (dose: 200.0 mg/kg/injection, schedule: Q04DX003 (ip), vehicle: saline with Tween-80) was 108 % of control, the T/C (dose: 400.0 mg/kg/injection, schedule: Q01DX009 (ip), vehicle: saline with Tween-80) was 109 % of control and the T/C (dose: 400.0 mg/kg/injection, schedule: Q04DX003 (ip), vehicle: saline with Tween-80) was 94 % of control.

CC1=C(c2ccccc2)OS(=O)(=O)NC1=O was tested, and the T/C [12] was 100 % of control, the T/C [13] was 97 % of control and the T/C [14] was 101 % of control.

COC(OC)c1[nH]c(=S)[nH]c(=O)c1Cc1ccccc1Cl was tested, and the T/C [4] was 97 % of control, the T/C [5] was 97 % of control and the T/C [6] was 105 % of control.

With O=C(Oc1c(Cl)c(Cl)c(Cl)c(Cl)c1Cl)c1cc(Cl)cc(Cl)c1Br the T/C [7] was 105 % of control, the T/C (dose: 50.0 mg/kg/injection, schedule: Q04DX003 (ip), vehicle: saline with Tween-80) was 102 % of control and the T/C [11] was 97 % of control and 91 % of control.

In the case of CC(=O)OCC1CCC(NC(=O)NCCF)CC1 (centres undefined), the T/C (dose: 50.0 mg/kg/injection, schedule: Q01DX001 (ip), vehicle: saline with Tween-80) is reported as 101 % of control, the T/C [15] is reported as 106 % of control and the T/C [16] is reported as 95 % of control.

With CCN(C(=O)c1cccc(C(=O)N(CC)c2cccc(C)c2)c1)c1cccc(C)c1 the T/C [4] was 94 % of control, the T/C [5] was 91 % of control and the T/C [6] was 91 % of control.

C=[CH][Sn]([CH]=C)([CH]=C)[O]C(C)=O was tested, and the T/C (dose: 1.56 mg/kg/injection, schedule: Q01DX009 (ip), vehicle: Klucel (hydroxypropylcellulose) (HPC)) was 103 % of control, the T/C (dose: 3.12 mg/kg/injection, schedule: Q01DX009 (ip), vehicle: Klucel (hydroxypropylcellulose) (HPC)) was 94 % of control and the T/C (dose: 6.25 mg/kg/injection, schedule: Q01DX009 (ip), vehicle: Klucel (hydroxypropylcellulose) (HPC)) was 98 % of control. For the same compound, the T/C (dose: 12.5 mg/kg/injection, schedule: Q01DX009 (ip), vehicle: Klucel (hydroxypropylcellulose) (HPC)) was 103 % of control, the T/C [17] was 102 % of control and the T/C [8] was 105 % of control.

With COC(=O)C1(C)CCCC2(C)C3CCC4(C)CC3(CCC12)CC4S(=O)(=O)c1ccc(C)cc1 (centres undefined) the T/C [17] was 100 % of control, the T/C [8] was 89 % of control and the T/C [9] was 95 % of control and 106 % of control. The T/C [5] was 86 % of control.

With CCN(CC)C(=S)SC(=S)N(CC)CC the T/C (dose: 100.0 mg/kg/injection, schedule: Q04DX002 (ip), vehicle: gum acacia) was 103 % of control, the T/C (dose: 200.0 mg/kg/injection, schedule: Q04DX002 (ip), vehicle: gum acacia) was 103 % of control and the T/C (dose: 400.0 mg/kg/injection, schedule: Q04DX002 (ip), vehicle: gum acacia) was 89 % of control.

COc1ccc(Cl)cc1CCCO was tested, and the T/C (dose: 50.0 mg/kg/injection, schedule: Q01DX001 (ip), vehicle: saline) was 100 % of control, the T/C [1] was 100 % of control and the T/C [2] was 92 % of control. The T/C [3] was 119 % of control.

For CCCCCCCCCCCN1C(=O)c2ccccc2S1(=O)=O, the T/C (dose: 222.0 mg/kg/injection, schedule: Q01DX Z (ip), vehicle: methylcellulose (MC)) was 91 % of control, the T/C (dose: 333.0 mg/kg/injection, schedule: Q01DX Z (ip), vehicle: methylcellulose (MC)) was 105 % of control and the T/C (dose: 500.0 mg/kg/injection, schedule: Q01DX Z (ip), vehicle: methylcellulose (MC)) was 102 % of control.

C[n+]1ccccc1/C=C/c1ccc(O)c(O)c1 was tested, and the T/C (dose: 75.0 mg/kg/injection, schedule: Q01DX001 (ip), vehicle: saline) was 96 % of control and the T/C (dose: 300.0 mg/kg/injection, schedule: Q01DX001 (ip), vehicle: saline) was 102 % of control.

For O=NN(CCCl)C(=O)Nc1cccc([N+](=O)[O-])c1, the T/C (dose: 12.0 mg/kg/injection, schedule: Q01DX001 (ip), vehicle: carboxymethylcellulose (CMC)) was 152 % of control, the T/C (dose: 18.0 mg/kg/injection, schedule: Q01DX001 (ip), vehicle: carboxymethylcellulose (CMC)) was 156 % of control and the T/C (dose: 26.0 mg/kg/injection, schedule: Q01DX001 (ip), vehicle: carboxymethylcellulose (CMC)) was 176 % of control. For the same compound, the T/C (dose: 40.0 mg/kg/injection, schedule: Q01DX001 (ip), vehicle: carboxymethylcellulose (CMC)) was 174 % of control and the T/C (dose: 60.0 mg/kg/injection, schedule: Q01DX001 (ip), vehicle: carboxymethylcellulose (CMC)) was 91 % of control.

With C(CC1CC1)OCOCCC1CC1 the T/C [15] was 93 % of control and the T/C [16] was 97 % of control.

COc1cc(Cl)ccc1NC(=O)N(C)C1CCCCC1 was tested, and the T/C [10] was 104 % of control, the T/C [18] was 104 % of control and the T/C [19] was 95 % of control.

For O=C(O)CNCc1ccccc1, the T/C [12] was 102 % of control, the T/C [13] was 96 % of control and the T/C [14] was 96 % of control.

With COC1OC2COC(c3ccccc3)OC2C(OC(=S)SCc2ccccc2)C1OC(=O)c1ccccc1 (centres undefined) the T/C (dose: 25.0 mg/kg/injection, schedule: Q04DX002 (ip), vehicle: saline) was 100 % of control, the T/C (dose: 50.0 mg/kg/injection, schedule: Q04DX002 (ip), vehicle: saline) was 88 % of control and the T/C (dose: 100.0 mg/kg/injection, schedule: Q04DX002 (ip), vehicle: saline) was 98 % of control. The T/C [5] was 86 % of control and the T/C [6] was 90 % of control.

C(#[C][Sb]([C]#Cc1ccccc1)[C]#Cc1ccccc1)c1ccccc1 was tested, and the T/C [12] was 98 % of control, the T/C [13] was 106 % of control and the T/C [14] was 102 % of control.

For CC(=O)N1CN(C(C)=O)CN(C(C)=O)C1, the T/C [10] was 95 % of control, the T/C (dose: 100.0 mg/kg/injection, schedule: Q04DX002 (ip), vehicle: saline with Tween-80) was 91 % of control and the T/C [18] was 92 % of control. For the same compound, the T/C (dose: 200.0 mg/kg/injection, schedule: Q04DX002 (ip), vehicle: saline with Tween-80) was 102 % of control, the T/C [19] was 97 % of control and the T/C (dose: 400.0 mg/kg/injection, schedule: Q04DX002 (ip), vehicle: saline with Tween-80) was 95 % of control.
